We go through one molecule from ChEMBL document CHEMBL3526031, “Mechanistic studies on the absorption and disposition of scutellarin in humans: selective OATP2B1-mediated hepatic uptake is a likely key determinant for its unique pharmacokinetic characteristics” (Drug Metab Dispos, 2012).

pKi: −log10 of the molar value.

Data set [1] relates to Liver microsome. The data set is described as follows: Ratio of Vmax to Km for drug metabolism in rat liver microsomes assessed as formation of scutellarein-7-O-glucuronide after 7 mins by HPLC/UV analysis. Format: ADME. For orientation: Liver microsomes are a subcellular fraction often used to study metabolism.
Data set [2] can be described thus: Drug metabolism in human intestinal microsomes assessed as formation of scutellarein-6-O-glucuronide after 7 mins by HPLC/UV analysis. In kind it is ADME, Intestine, Microsome.
The subject of data set [3] is Liver microsome. The data set is described as follows: Drug metabolism in human liver microsomes assessed as formation of scutellarein-6-O-glucuronide after 7 mins by HPLC/UV analysis. Format: ADME.
Data set [4] is described as follows: Ratio of Vmax to Km for drug metabolism in human intestinal microsomes assessed as formation of scutellarein-6-O-glucuronide after 7 mins by HPLC/UV analysis. In kind it is ADME, Intestine, Microsome.
Data set [5] deals with Liver microsome. The data set is described as follows: Ratio of Vmax to Km for drug metabolism in human liver microsomes assessed as formation of scutellarein-6-O-glucuronide after 7 mins by HPLC/UV analysis. In kind it is ADME.
In data set [6] the test system is Liver microsome. Nature of the data set: Drug metabolism in rat liver microsomes assessed as formation of scutellarein-6-O-glucuronide after 7 mins by HPLC/UV analysis. In kind it is ADME.
In data set [7] the test system is Liver microsome. The data set is described as follows: Ratio of Vmax to Km for drug metabolism in rat liver microsomes assessed as formation of scutellarein-6-O-glucuronide after 7 mins by HPLC/UV analysis. In kind it is ADME.
Data set [8] is described as follows: Drug metabolism in human intestinal microsomes assessed as formation of scutellarein-7-O-glucuronide after 7 mins by HPLC/UV analysis. Format: ADME, Intestine, Microsome.
Data set [9] deals with Liver microsome. The data set is described as follows: Drug metabolism in human liver microsomes assessed as formation of scutellarein-7-O-glucuronide after 7 mins by HPLC/UV analysis. In kind it is ADME.
Data set [10] can be described thus: Drug metabolism in rat intestinal microsomes assessed as formation of scutellarein-7-O-glucuronide after 7 mins by HPLC/UV analysis. Format: ADME, Intestine, Microsome.
Data set [11] relates to Liver microsome. Nature of the data set: Drug metabolism in rat liver microsomes assessed as formation of scutellarein-7-O-glucuronide after 7 mins by HPLC/UV analysis. In kind it is ADME.
Data set [12] deals with T1, UDP-glucuronosyltransferase 1A1 (Homo sapiens, UniProt P22309).
T1 sequence (P22309 whole entry): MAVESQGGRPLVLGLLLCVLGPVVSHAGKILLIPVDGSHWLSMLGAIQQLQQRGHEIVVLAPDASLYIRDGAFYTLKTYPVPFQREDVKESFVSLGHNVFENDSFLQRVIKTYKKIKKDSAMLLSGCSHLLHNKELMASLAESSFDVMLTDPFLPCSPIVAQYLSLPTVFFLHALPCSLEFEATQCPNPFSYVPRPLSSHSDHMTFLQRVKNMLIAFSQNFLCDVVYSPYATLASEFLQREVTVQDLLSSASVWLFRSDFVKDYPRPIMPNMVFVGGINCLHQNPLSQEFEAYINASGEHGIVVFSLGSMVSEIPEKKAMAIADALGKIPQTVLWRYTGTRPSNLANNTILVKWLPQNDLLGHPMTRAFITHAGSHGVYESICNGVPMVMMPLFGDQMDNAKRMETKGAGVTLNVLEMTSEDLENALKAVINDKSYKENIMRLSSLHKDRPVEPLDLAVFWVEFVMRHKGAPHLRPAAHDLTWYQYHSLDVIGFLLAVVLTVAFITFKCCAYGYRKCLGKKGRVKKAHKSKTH
The data set is described as follows: Drug metabolism assessed as human recombinant UGT1A1-mediated formation of scutellarein-7-O-glucuronide after 25 mins by HPLC/UV analysis. Format: ADME.

A short description of data set [13]: Ratio of Vmax to Km for drug metabolism in human intestinal microsomes assessed as formation of scutellarein-7-O-glucuronide after 7 mins by HPLC/UV analysis. In kind it is ADME, Intestine, Microsome.
For data set [14], the system named is Liver microsome. Nature of the data set: Ratio of Vmax to Km for drug metabolism in human liver microsomes assessed as formation of scutellarein-7-O-glucuronide after 7 mins by HPLC/UV analysis. Format: ADME.
The nature of data set [15]: Ratio of Vmax to Km for drug metabolism in rat intestinal microsomes assessed as formation of scutellarein-7-O-glucuronide after 7 mins by HPLC/UV analysis. Format: ADME, Intestine, Microsome.

For `O=c1cc(-c2ccc(O)cc2)oc2cc(O)c(O)c(O)c12` [SCUTELLAREIN], the Vmax/Km with Liver microsome [1] is 1361 µL/min/mg; in [4], 342 µL/min/mg; in the data set on Liver microsome [5], 97.9 µL/min/mg; in the data set on Liver microsome [7] it was 577 µL/min/mg; in data set [13] it was 924 µL/min/mg; with Liver microsome [14], 1368 µL/min/mg. The Vmax/Km in [15] was determined as 1924 µL/min/mg. Besides, the Km (in general, the concentration of substrate that gives half-maximal velocity) in data set [2] is 7.06 µM; in the data set with Liver microsome [3], 16.2 µM; in the data set with Liver microsome [6], 2.86 µM; in [8] (human, microsomes, 7 min), 5.9 µM; in the data set with Liver microsome [9], 6.32 µM; in [10], 9 µM. Also, in the data set on Liver microsome [11], the Km came out at 7.37 µM. Also, the Vmax – broadly, the rate approached at saturating substrate – in data set [2] is on record as 2.41 nmol/min/mg; with Liver microsome [3], 1.59 nmol/min/mg; in the data set on Liver microsome [6] it was 1.65 nmol/min/mg; in [8] (human, microsomes, 7 min), 5.45 nmol/min/mg; in the data set on Liver microsome [9], 8.64 nmol/min/mg; in data set [10] it was 17.3 nmol/min/mg. Also, in the data set with Liver microsome [11], the Vmax amounted to 10 nmol/min/mg. The pKi (as a rule, the Ki on a negative log10 scale, so that one unit is a factor of ten) is 3.40 in data set [8] and 4.38 in [12].
